# Laboratory results published in patent US11814445B2, “Cyclic polypeptides for PCSK9 inhibition” (Ra Pharmaceuticals, Inc., priority 2018, dated 2023).
# Numbered stars: 1 amine (or outer) side, 2 acyl side, 3 side chain; on linkers, the order of the positions; unused ones are H or OH. Bridge positions count the residues as written; N and C are the ends. Square brackets hold non-standard residues; d marks the D form. Peptide text beside a SMILES is read from it. ξ: configuration not given here. Trp(5-F) = N[C@@H](Cc1c[nH]c2ccc(F)cc12)C(=O)O; Pro(trans-4-F) = O=C(O)[C@@H]1C[C@@H](F)CN1; Asp(3,3-Me2) = CC(C)(C(=O)O)[C@H](N)C(=O)O; X8 = O=C(CCCCCSCc1cccc(CSCCN[*:1])c1)[*:2]; Phe(3-Cl) = N[C@@H](Cc1cccc(Cl)c1)C(=O)O; Phe(4-Cl) = N[C@@H](Cc1ccc(Cl)cc1)C(=O)O; X1 = O=C(CCSCc1cccc(CSCCN[*:1])c1)[*:2]; 1Nal = N[C@@H](Cc1cccc2ccccc12)C(=O)O; 2Nal = N[C@@H](Cc1ccc2ccccc2c1)C(=O)O; Tiq1c(1S) = O=C(O)[C@H]1NCCc2ccccc21; mXylylene = c1cc(C[*:1])cc(C[*:2])c1; NMeY = CN[C@@H](Cc1ccc(O)cc1)C(=O)O; NMeF = CN[C@@H](Cc1ccccc1)C(=O)O; 3Pal = N[C@@H](Cc1cccnc1)C(=O)O; Tic = O=C(O)[C@@H]1Cc2ccccc2CN1; Cha = N[C@@H](CC1CCCCC1)C(=O)O; αMeP = C[C@@]1(C(=O)O)CCCN1; ΔPro = O=C(O)[C@@H]1C=CCN1; Pip = O=C(O)[C@@H]1CCCCN1; Nva = CCC[C@H](N)C(=O)O; Aib = CC(C)(N)C(=O)O; ξP = O=C(O)C1CCCN1; Mpa = O=C(O)CCS
# Target: human PCSK9 / human LDLR EGFa domain (Homo sapiens, UniProt Q8NBP7)
# Assay: TR-FRET assay of inhibition of the PCSK9-LDLR protein-protein interaction
# Format: binding
# Details: 20 nM human PCSK9, 20 nM human LDLR EGFa domain, 2 hours room temperature
# Experimental: A time-resolved fluorescence resonance energy (TR-FRET) assay was used to measure inhibition of the PCSK9-LDLR protein-protein interaction. Briefly, 20 nM avitag-biotinylated human PCSK9 was incubated with 20 nM his-tagged human LDLR EGFa domain in the presence of 5 nM LANCE Ulight Streptavidin (Perkin Elmer) and 5 nM europium-Anti-6×His (Perkin Elmer) for 2 hours covered at room temperature in buffer containing 50 mM HEPES, 150 mM NaCl, 5 mM CaCl2), 0.01% BSA and 0.01% Surfactant P20. Compounds were tested in dose-response and concentrations giving half-maximal inhibition calculated using a 4-parameter fit equation.
# Chain of human PCSK9 / human LDLR EGFa domain (Q8NBP7 153-692): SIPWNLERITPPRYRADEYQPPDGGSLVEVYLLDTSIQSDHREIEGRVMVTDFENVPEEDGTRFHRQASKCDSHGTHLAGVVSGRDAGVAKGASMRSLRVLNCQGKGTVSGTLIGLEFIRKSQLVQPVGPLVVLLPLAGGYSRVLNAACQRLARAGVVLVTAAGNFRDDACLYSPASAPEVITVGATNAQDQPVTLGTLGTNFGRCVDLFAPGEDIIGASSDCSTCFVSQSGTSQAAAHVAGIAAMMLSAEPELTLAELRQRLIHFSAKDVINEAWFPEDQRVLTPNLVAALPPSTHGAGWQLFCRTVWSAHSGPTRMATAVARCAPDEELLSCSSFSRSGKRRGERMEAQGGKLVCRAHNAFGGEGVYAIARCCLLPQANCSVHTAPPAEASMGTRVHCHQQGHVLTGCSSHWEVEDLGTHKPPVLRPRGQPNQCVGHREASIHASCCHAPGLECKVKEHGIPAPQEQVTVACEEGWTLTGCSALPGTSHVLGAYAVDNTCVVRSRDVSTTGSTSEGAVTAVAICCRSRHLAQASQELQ
row,Structure (SMILES),IC50
1,NCCCC[C@@H]1NC(=O)CCSCc2cccc(c2)CSC[C@@H](C(N)=O)NC(=O)[C@@H]2CCCN2C(=O)[C@@H]2CCCN2C(=O)[C@@H]2CCCN2C(=O)[C@@H]2CCCN2C(=O)[C@H](Cc2c[nH]c3ccc(F)cc23)CC(=O)[C@H](Cc2c[nH]c3ccc(F)cc23)NC(=O)CNC1=O [Compound 033],1 to 12.1 µM
2,C[C@@H]1NC(=O)[C@@H]2CCCN2C(=O)[C@H](Cc2ccc(Cl)cc2)NC(=O)[C@H](Cc2c[nH]c3ccc(F)cc23)NC(=O)CNC(=O)[C@H](CCCCN)NC(=O)CCSCc2cccc(c2)CSC[C@@H](C(N)=O)NC(=O)[C@@H]2CCCN2C(=O)[C@H](Cc2ccc(O)cc2)NC1=O [Compound 004] ([Mpa]KG[Trp(5-F)][Phe(4-Cl)]PAYPC-NH2; linker 1-10 via mXylylene),1 to 12.1 µM
3,C[C@@H]1NC(=O)CCSCc2cccc(c2)CSCCNC(=O)[C@@H]2CCCN2C(=O)[C@H](Cc2ccc(O)cc2)NC(=O)[C@H](C)NC(=O)[C@@H]2c3ccccc3CCN2C(=O)[C@H](Cc2c[nH]c3ccc(F)cc23)NC(=O)[C@H](Cc2c[nH]c3ccccc23)NC(=O)[C@@H](C)NC1=O [Compound 092] (cyclo(AYP[X1]A[dA]W[Trp(5-F)][Tiq1c(1S)])),21 to 50 µM
4,CCC[C@@H]1NC(=O)CCSCc2cccc(c2)CSCCNC(=O)[C@@H]2CCCN2C(=O)[C@H](Cc2ccc(O)cc2)NC(=O)[C@H](C)NC(=O)[C@@H]2CCCN2C(=O)[C@H](Cc2c[nH]c3ccc(F)cc23)NC(=O)[C@H](Cc2c[nH]c3ccc(F)cc23)NC(=O)[C@@H](C)NC1=O [Compound 093] (cyclo(AYP[X1][Nva][dA][Trp(5-F)][Trp(5-F)]P)),1 to 12.1 µM
5,C[C@@H]1NC(=O)[C@@H]2CCCN2C(=O)[C@H](Cc2c[nH]c3ccc(F)cc23)NC(=O)[C@H](Cc2cccc3ccccc23)NC(=O)[C@@H](C)NC(=O)[C@@H]2CCCN2C(=O)CCSCc2cccc(c2)CSCCNC(=O)[C@@H]2CCCN2C(=O)[C@H](Cc2cccc3ccccc23)NC1=O [Compound 055] (cyclo([1Nal]P[X1]P[dA][1Nal][Trp(5-F)]PA)),1 to 12.1 µM
6,CN1C(=O)[C@H](Cc2cnc[nH]2)NC(=O)C(C)(C)NC(=O)[C@H](Cc2c[nH]c3ccc(F)cc23)NC(=O)[C@H](Cc2c[nH]c3ccc(F)cc23)NC(=O)CNC(=O)[C@H](CCCCN)NC(=O)CCSCc2cccc(c2)CSCCNC(=O)[C@]2(C)CCCN2C(=O)[C@@H]1Cc1ccc(O)cc1 [Compound 111] (cyclo([Aib]H[NMeY][αMeP][X1]KG[Trp(5-F)][Trp(5-F)])),1 to 12.1 µM
7,C[C@@H]1NC(=O)CCSCc2cccc(c2)CSCCNC(=O)[C@@H]2CCCN2C(=O)[C@H](Cc2cccc3ccccc23)NC(=O)[C@H](C)NC(=O)[C@@H]2CCCN2C(=O)[C@H](Cc2c[nH]c3ccc(F)cc23)NC(=O)[C@H](Cc2cccc3ccccc23)NC(=O)[C@@H](C)NC1=O [Compound 080] (cyclo([1Nal]P[X1]A[dA][1Nal][Trp(5-F)]PA)),1 to 12.1 µM
8,C[C@@H]1NC(=O)CCSCc2cccc(c2)CSCCNC(=O)[C@@H]2CCCN2C(=O)[C@H](Cc2ccccc2)N(C)C(=O)[C@H](C)NC(=O)[C@@H]2CCCCN2C(=O)[C@H](Cc2c[nH]c3ccc(F)cc23)NC(=O)[C@H](Cc2c[nH]c3ccc(F)cc23)NC(=O)[C@@H](C)NC1=O [Compound 088] (cyclo(A[NMeF]P[X1]A[dA][Trp(5-F)][Trp(5-F)][Pip])),21 to 50 µM
9,C[C@@H]1NC(=O)CCSCc2cccc(c2)CSCCNC(=O)[C@@H]2CCCN2C(=O)[C@H](Cc2cccc3ccccc23)NC(=O)[C@H](C)NC(=O)[C@@H]2CCCN2C(=O)[C@H](Cc2c[nH]c3ccc(F)cc23)NC(=O)[C@H](Cc2c[nH]c3ccc(F)cc23)NC(=O)[C@@H](C)NC1=O [Compound 065] (cyclo([1Nal]P[X1]A[dA][Trp(5-F)][Trp(5-F)]PA)),21 to 50 µM
10,C[C@@H]1NC(=O)[C@@H]2CCCN2C(=O)[C@H](Cc2cccnc2)NC(=O)[C@H](Cc2c[nH]c3ccc(F)cc23)NC(=O)CNC(=O)[C@H](CCCCN)NC(=O)CCSCc2cccc(c2)CSC[C@@H](C(N)=O)NC(=O)[C@@H]2CCCN2C(=O)[C@H](Cc2ccc(O)cc2)NC1=O [Compound 020] ([Mpa]KG[Trp(5-F)][3Pal]PAYPC-NH2; linker 1-10 via mXylylene),21 to 50 µM

# Results, then the compound that gave them:
row,IC50,Structure (SMILES)
1,0.1 to 1 µM,C[C@@H](O)[C@@H]1NC(=O)CNC(=O)[C@H](CCCCN)NC(=O)CCSCc2cccc(c2)CSCCNC(=O)[C@]2(C)CCCN2C(=O)[C@H](Cc2ccc(O)cc2)NC(=O)[C@H](Cc2cnc[nH]2)NC(=O)[C@@H]2CCCN2C(=O)[C@H](Cc2c[nH]c3ccc(F)cc23)NC1=O [Compound 105] (cyclo(GT[Trp(5-F)]PHY[αMeP][X1]K))
2,0.1 to 1 µM,C[C@@H]1NC(=O)CNC(=O)[C@H](CCCCN)NC(=O)CCSCc2cccc(c2)CSC[C@@H](C(N)=O)NC(=O)[C@@H]2CCCN2C(=O)[C@H](Cc2ccc(O)cc2)NC(=O)[C@H](Cc2cnc[nH]2)NC(=O)[C@H](CC(=O)O)NC(=O)[C@H](Cc2c[nH]c3ccc(F)cc23)NC1=O [Compound 112] ([Mpa]KGA[Trp(5-F)]DHYPC-NH2; linker 1-10 via mXylylene)
3,0.1 to 1 µM,C[C@@H]1NC(=O)[C@@H]2CCCN2C(=O)[C@H](Cc2c[nH]c3ccc(F)cc23)NC(=O)[C@H](Cc2c[nH]c3ccc(F)cc23)NC(=O)CNC(=O)CCCCCSCc2cccc(c2)CSCCNC(=O)C2CCCN2C(=O)[C@H](Cc2ccc(O)cc2)NC1=O (some centres unmarked) [Compound 098] (cyclo(AY[ξP][X8]G[Trp(5-F)][Trp(5-F)]P))
4,0.1 to 1 µM,C[C@@H]1NC(=O)[C@@H]2C[C@@H](F)CN2C(=O)[C@H](Cc2c[nH]c3ccc(F)cc23)NC(=O)[C@H](Cc2c[nH]c3ccc(F)cc23)NC(=O)[C@@H](C)NC(=O)[C@H](CCCCN)NC(=O)CCSCc2cccc(c2)CSC[C@@H](C(N)=O)NC(=O)[C@@H]2CCCN2C(=O)[C@H](Cc2ccc(O)cc2)NC1=O [Compound 037] ([Mpa]K[dA][Trp(5-F)][Trp(5-F)][Pro(trans-4-F)]AYPC-NH2; linker 1-10 via mXylylene)
5,0.001 to 0.1 µM,C[C@@H]1NC(=O)[C@@H]2CCCN2C(=O)[C@H](Cc2c[nH]c3ccc(F)cc23)NC(=O)[C@H](Cc2c[nH]c3ccc(F)cc23)NC(=O)[C@@H](C)NC(=O)[C@@H]2CCCN2C(=O)CCSCc2cccc(c2)CSCCNC(=O)[C@@H]2CCCN2C(=O)[C@H](Cc2ccccc2)N(C)C1=O [Compound 051] (cyclo(A[NMeF]P[X1]P[dA][Trp(5-F)][Trp(5-F)]P))
6,0.1 to 1 µM,C[C@@H]1NC(=O)CCSCc2cccc(c2)CSCCNC(=O)[C@@H]2CCCN2C(=O)[C@H](Cc2ccc3ccccc3c2)NC(=O)[C@H](C)NC(=O)[C@@H]2CCCN2C(=O)[C@H](Cc2c[nH]c3ccc(F)cc23)NC(=O)[C@H](Cc2cccc3ccccc23)NC(=O)[C@@H](C)NC1=O [Compound 079] (cyclo([1Nal][Trp(5-F)]PA[2Nal]P[X1]A[dA]))
7,0.1 to 1 µM,C[C@@H]1NC(=O)CCSCc2cccc(c2)CSCCNC(=O)[C@@H]2CCCN2C(=O)[C@H](Cc2ccc(O)cc2)NC(=O)[C@H](C)NC(=O)[C@@H]2Cc3ccccc3CN2C(=O)[C@H](Cc2c[nH]c3ccc(F)cc23)NC(=O)[C@H](Cc2c[nH]c3ccc(F)cc23)NC(=O)[C@@H](C)NC1=O [Compound 091] (cyclo(AYP[X1]A[dA][Trp(5-F)][Trp(5-F)][Tic]))
8,0.1 to 1 µM,C[C@@H]1NC(=O)[C@@H]2CCCN2C(=O)[C@H](Cc2c[nH]c3ccc(F)cc23)NC(=O)[C@H](Cc2c[nH]c3ccc(F)cc23)NC(=O)CNC(=O)[C@H](CCCCN)NC(=O)CCSCc2cccc(c2)CSC[C@@H](C(N)=O)NC(=O)[C@@H]2CCCN2C(=O)[C@@H]2CCCN2C1=O [Compound 032] ([Mpa]KG[Trp(5-F)][Trp(5-F)]PAPPC-NH2; linker 1-10 via mXylylene)
9,0.1 to 1 µM,C[C@@H]1NC(=O)[C@@H]2C=CCN2C(=O)[C@H](Cc2c[nH]c3ccc(F)cc23)NC(=O)[C@H](Cc2c[nH]c3ccc(F)cc23)NC(=O)[C@@H](C)NC(=O)[C@H](CCCCN)NC(=O)CCSCc2cccc(c2)CSC[C@@H](C(N)=O)NC(=O)[C@@H]2CCCN2C(=O)[C@H](Cc2ccc(O)cc2)NC1=O [Compound 038] ([Mpa]K[dA][Trp(5-F)][Trp(5-F)][ΔPro]AYPC-NH2; linker 1-10 via mXylylene)
10,0.1 to 1 µM,CN1C(=O)[C@H](Cc2cnc[nH]2)NC(=O)[C@@H]2CCCN2C(=O)[C@H](Cc2c[nH]c3ccc(F)cc23)NC(=O)[C@H](CC2CCCCC2)NC(=O)CNC(=O)[C@H](CCCCN)NC(=O)CCSCc2cccc(c2)CSCCNC(=O)[C@]2(C)CCCN2C(=O)[C@@H]1Cc1ccc(O)cc1 [Compound 106] (cyclo([Cha][Trp(5-F)]PH[NMeY][αMeP][X1]KG))
11,0.1 to 1 µM,C[C@@H]1NC(=O)[C@@H]2CCCN2C(=O)[C@H](Cc2cccc(Cl)c2)NC(=O)[C@H](Cc2c[nH]c3ccc(F)cc23)NC(=O)CNC(=O)[C@H](CCCCN)NC(=O)CCSCc2cccc(c2)CSC[C@@H](C(N)=O)NC(=O)[C@@H]2CCCN2C(=O)[C@H](Cc2ccc(O)cc2)NC1=O [Compound 005] ([Mpa]KG[Trp(5-F)][Phe(3-Cl)]PAYPC-NH2; linker 1-10 via mXylylene)
12,0.1 to 1 µM,"CC(C)(C(=O)O)[C@@H]1NC(=O)[C@H](Cc2c[nH]c3ccc(F)cc23)NC(=O)[C@H](Cc2c[nH]c3ccc(F)cc23)NC(=O)CNC(=O)[C@H](CCCCN)NC(=O)CCSCc2cccc(c2)CSC[C@@H](C(N)=O)NC(=O)[C@]2(C)CCCN2C(=O)[C@H](Cc2ccc(O)cc2)NC(=O)[C@H](Cc2cnc[nH]2)NC1=O [Compound 115] ([Mpa]KG[Trp(5-F)][Trp(5-F)][Asp(3,3-Me2)]HY[αMeP]C-NH2; linker 1-10 via mXylylene)"
13,0.1 to 1 µM,C[C@@H]1NC(=O)[C@@H]2CCCN2C(=O)[C@H](Cc2c[nH]c3ccc(F)cc23)NC(=O)[C@H](Cc2c[nH]c3ccc(F)cc23)NC(=O)[C@@H](C)NC(=O)[C@@H]2CCCN2C(=O)CCSCc2cccc(c2)CSCCNC(=O)[C@@H]2CCCN2C(=O)[C@H](Cc2ccc(O)cc2)N(C)C1=O [Compound 052] (cyclo(A[NMeY]P[X1]P[dA][Trp(5-F)][Trp(5-F)]P))
